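Tested at 5 concentrations; 48 h exposure; 96-well plates; endpoints linearly interpolated, else capped at highest concentration. Definition used: TGI = concentration required for complete inhibition of growth.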
Experiments:
Assay in all cases: NCI tumour cell line growth inhibition, 48 h
T-47D breast = test system: T-47D breast
COLO 205 colon = test system: COLO 205 colon
NCI/ADR-RES ovarian = test system: NCI/ADR-RES ovarian
OVCAR-4 ovarian = test system: OVCAR-4 ovarian
786-0 renal = test system: 786-0 renal
NCI-H226 lung = test system: NCI-H226 lung
SF-295 CNS = test system: SF-295 CNS
SK-MEL-2 melanoma = test system: SK-MEL-2 melanoma
OVCAR-8 ovarian = test system: OVCAR-8 ovarian
SR leukemia = test system: SR leukemia
K-562 leukemia = test system: K-562 leukemia
SW-620 colon = test system: SW-620 colon
IGROV1 ovarian = test system: IGROV1 ovarian
MALME-3M melanoma = test system: MALME-3M melanoma
A549 NSCLC = test system: A549 NSCLC
HS 578T breast = test system: HS 578T breast
SN12C renal = test system: SN12C renal
BT-549 breast = test system: BT-549 breast
A498 renal = test system: A498 renal
ACHN renal = test system: ACHN renal
HL-60(TB) leukemia = test system: HL-60(TB) leukemia
NCI-H23 lung = test system: NCI-H23 lung
HOP-92 NSCLC = test system: HOP-92 NSCLC
MDA-MB-231 breast = test system: MDA-MB-231 breast
SF-268 CNS = test system: SF-268 CNS
OVCAR-5 ovarian = test system: OVCAR-5 ovarian
HOP-62 NSCLC = test system: HOP-62 NSCLC
SK-OV-3 ovarian = test system: SK-OV-3 ovarian
DU-145 prostate = test system: DU-145 prostate
NCI-H460 lung = test system: NCI-H460 lung
HT29 colon = test system: HT29 colon
SNB-75 CNS = test system: SNB-75 CNS
MDA-N = test system: MDA-N
SK-MEL-5 melanoma = test system: SK-MEL-5 melanoma
OVCAR-3 ovarian = test system: OVCAR-3 ovarian
NCI-H522 lung = test system: NCI-H522 lung
KM12 colon = test system: KM12 colon
SNB-19 CNS = test system: SNB-19 CNS
U251 CNS = test system: U251 CNS
EKVX NSCLC = test system: EKVX NSCLC
MOLT-4 leukemia = test system: MOLT-4 leukemia
UO-31 renal = test system: UO-31 renal
MCF7 breast = test system: MCF7 breast
LOX IMVI melanoma = test system: LOX IMVI melanoma
UACC-62 melanoma = test system: UACC-62 melanoma
M14 melanoma = test system: M14 melanoma
HCT-15 colon = test system: HCT-15 colon
SK-MEL-28 melanoma = test system: SK-MEL-28 melanoma
PC-3 prostate = test system: PC-3 prostate
RPMI-8226 leukemia = test system: RPMI-8226 leukemia
SF-539 CNS = test system: SF-539 CNS
HCT-116 colon = test system: HCT-116 colon
RXF 393 renal = test system: RXF 393 renal
UACC-257 melanoma = test system: UACC-257 melanoma
HCC-2998 colon = test system: HCC-2998 colon
CAKI-1 renal = test system: CAKI-1 renal
CCRF-CEM leukemia = test system: CCRF-CEM leukemia
TK-10 renal = test system: TK-10 renal
MDA-MB-435 = test system: MDA-MB-435

Work on `c1ccc2c(c1)nc1n2CCCn2ccnc2-1` yielded a TGI (T-47D breast) of over 100 µM, a TGI (COLO 205 colon) of over 100 µM and a TGI (NCI/ADR-RES ovarian) of over 100 µM. The TGI (OVCAR-4 ovarian) was over 100 µM, the TGI (786-0 renal) was over 100 µM and the TGI (NCI-H226 lung) was over 100 µM. For the same molecule, the TGI (SF-295 CNS) was over 100 µM, the TGI (SK-MEL-2 melanoma) was over 100 µM and the TGI (OVCAR-8 ovarian) was over 100 µM. For the same molecule, the TGI (SR leukemia) was over 100 µM, the TGI (K-562 leukemia) was over 100 µM and the TGI (SW-620 colon) was over 100 µM. It also gave a TGI (IGROV1 ovarian) of over 100 µM, a TGI (MALME-3M melanoma) of over 100 µM and a TGI (A549 NSCLC) of over 100 µM. For the same molecule, the TGI (HS 578T breast) was over 100 µM, the TGI (SN12C renal) was over 100 µM and the TGI (BT-549 breast) was over 100 µM. The TGI (A498 renal) was over 100 µM, the TGI (ACHN renal) was over 100 µM and the TGI (HL-60(TB) leukemia) was 597 nM. For the same molecule, the TGI (NCI-H23 lung) was over 100 µM, the TGI (HOP-92 NSCLC) was over 100 µM and the TGI (MDA-MB-231 breast) was over 100 µM. The TGI (SF-268 CNS) was over 100 µM, the TGI (OVCAR-5 ovarian) was over 100 µM and the TGI (HOP-62 NSCLC) was over 100 µM. The TGI (SK-OV-3 ovarian) was 9.03 µM, the TGI (DU-145 prostate) was over 100 µM and the TGI (NCI-H460 lung) was over 100 µM. It also gave a TGI (HT29 colon) of over 100 µM, a TGI (SNB-75 CNS) of over 100 µM and a TGI (MDA-N) of over 100 µM. The TGI (SK-MEL-5 melanoma) was over 100 µM, the TGI (OVCAR-3 ovarian) was over 100 µM and the TGI (NCI-H522 lung) was over 100 µM. For the same molecule, the TGI (KM12 colon) was over 100 µM, the TGI (SNB-19 CNS) was over 100 µM and the TGI (U251 CNS) was over 100 µM. For the same molecule, the TGI (EKVX NSCLC) was over 100 µM, the TGI (MOLT-4 leukemia) was over 100 µM and the TGI (UO-31 renal) was over 100 µM. For the same molecule, the TGI (MCF7 breast) was over 100 µM, the TGI (LOX IMVI melanoma) was over 100 µM and the TGI (UACC-62 melanoma) was over 100 µM. It also gave a TGI (M14 melanoma) of over 100 µM, a TGI (HCT-15 colon) of over 100 µM and a TGI (SK-MEL-28 melanoma) of over 100 µM. It also gave a TGI (PC-3 prostate) of over 100 µM, a TGI (RPMI-8226 leukemia) of over 100 µM and a TGI (SF-539 CNS) of over 100 µM. It also gave a TGI (HCT-116 colon) of over 100 µM and a TGI (RXF 393 renal) of over 100 µM.

`Oc1cc(Br)cc2cccnc12` was tested, and the TGI (T-47D breast) was 25.4 µM, the TGI (COLO 205 colon) was 34.8 µM and the TGI (NCI/ADR-RES ovarian) was 8.26 µM. For the same molecule, the TGI (OVCAR-4 ovarian) was over 65.3 µM, the TGI (786-0 renal) was 38 µM and the TGI (NCI-H226 lung) was 58 µM. The TGI (SF-295 CNS) was 32.7 µM, the TGI (SK-MEL-2 melanoma) was over 100 µM and the TGI (OVCAR-8 ovarian) was over 35.4 µM. The TGI (SR leukemia) was 5.92 µM, the TGI (K-562 leukemia) was 8.08 µM and the TGI (SW-620 colon) was 16.9 µM. The TGI (IGROV1 ovarian) was 8.22 µM, the TGI (MALME-3M melanoma) was 47 µM and the TGI (A549 NSCLC) was over 87.2 µM. For the same molecule, the TGI (HS 578T breast) was over 100 µM, the TGI (SN12C renal) was over 55.6 µM and the TGI (BT-549 breast) was 98 µM. For the same molecule, the TGI (A498 renal) was 24.3 µM, the TGI (ACHN renal) was over 69 µM and the TGI (HL-60(TB) leukemia) was 820 nM. It also gave a TGI (UACC-257 melanoma) of 6.93 µM, a TGI (NCI-H23 lung) of 31.2 µM and a TGI (HOP-92 NSCLC) of 38 µM. For the same molecule, the TGI (MDA-MB-231 breast) was 19.1 µM, the TGI (SF-268 CNS) was over 42.2 µM and the TGI (OVCAR-5 ovarian) was over 100 µM. For the same molecule, the TGI (HOP-62 NSCLC) was 81.9 µM, the TGI (SK-OV-3 ovarian) was 79.9 µM and the TGI (DU-145 prostate) was over 100 µM. The TGI (HCC-2998 colon) was 98.2 µM, the TGI (CAKI-1 renal) was 39 µM and the TGI (NCI-H460 lung) was 17 µM. For the same molecule, the TGI (HT29 colon) was 35 µM, the TGI (SNB-75 CNS) was over 91.5 µM and the TGI (CCRF-CEM leukemia) was 4.61 µM. It also gave a TGI (MDA-N) of 97 µM, a TGI (SK-MEL-5 melanoma) of 15.1 µM and a TGI (OVCAR-3 ovarian) of 13.7 µM. For the same molecule, the TGI (NCI-H522 lung) was 7.57 µM, the TGI (TK-10 renal) was over 100 µM and the TGI (KM12 colon) was over 100 µM. For the same molecule, the TGI (SNB-19 CNS) was over 100 µM, the TGI (U251 CNS) was over 58.4 µM and the TGI (EKVX NSCLC) was 16.2 µM. It also gave a TGI (MOLT-4 leukemia) of 9.84 µM, a TGI (UO-31 renal) of 35.9 µM and a TGI (UACC-62 melanoma) of 7.81 µM. For the same molecule, the TGI (M14 melanoma) was over 37.7 µM, the TGI (HCT-15 colon) was over 100 µM and the TGI (SK-MEL-28 melanoma) was over 100 µM. For the same molecule, the TGI (MDA-MB-435) was over 60 µM, the TGI (PC-3 prostate) was over 100 µM and the TGI (RPMI-8226 leukemia) was 5.68 µM. For the same molecule, the TGI (SF-539 CNS) was over 45.1 µM, the TGI (HCT-116 colon) was 16.8 µM and the TGI (RXF 393 renal) was 30.4 µM.

Source: PubChem BioAssay (NCI)
